Data: US7951827B2, “Synthesis and antiprotozoal activity of dicationic 3,5-diphenylisoxazoles” (The University of North Carolina at Chapel Hill, priority 2005, dated 2011)
Where two headings read alike, the source gives them in different places.

Experiments:
Plasmodium falciparum = experiment: In vitro antiprotozoal activity against Plasmodium falciparum; format: cell-based; settings: for IC50: Plasmodium falciparum
Description: (§1) In vitro antiprotozoal activities, see Ismail, M. A., et al., J. Med. Chem. 46, 4761-4769 (2003), and cytotoxicity were measured following established protocols, see Balz, T., et al., EMBO J., 4, 1273-1277 (1985); Räz. B., et al., Acta Trop., 68:139-147 (1997); and Sperandeo, N. R. et al., Chem. Biochem., 4, 69-73 (2003). […] Other positive controls employed were melarsoprol (against T. brucei), chloroquine, and artemisinin (against P. falciparum), and podophyllotoxin (against VERO cells).

[1] = tested on: Trypanosoma brucei brucei; experiment: In vitro antiprotozoal activity against Trypanosoma brucei brucei; format: cell-based; settings: Trypanosoma brucei
Description: as §1

VERO cells = experiment: Cytotoxicity to VERO cells; format: cell-based, African green monkey (Cercopithecus Aethiops); settings: for IC50: Chlorocebus sabaeus, Vero, read-out: IC50 value against VERO cells
Description: as §1

[2] = Cytotoxicity to VERO cells; format: cell-based, African green monkey (Cercopithecus Aethiops); settings: African green monkey (Cercopithecus aethiops), IC50 (μM) Cytotoxicity VERO cells
Description: as §1

[3] = Table 1, read-out: IC50 (μM) Plasmodium falciparum
[4] = read-out: antiplasmodial IC50 values (P. falciparum)
[5] = Table 1, read-out: IC50 (μM) Trypanosoma brucei brucei
[6] = read-out: IC50 values against T. brucei brucei

| SMILES | selectivities against P. falciparum over T. brucei brucei (Plasmodium falciparum) | IC50 (Plasmodium falciparum; [3]) | IC50 (Plasmodium falciparum; [4]) | IC50 [1, 5] | melting point | toxicity (VERO cells) in words (VERO cells) | IC50 (VERO cells) | IC50 [2] | IC50 [1, 6] |
| --- | --- | --- | --- | --- | --- | --- | --- | --- | --- |
| CC(C)NC(=N)c1ccc(-c2cc(-c3cccc(C(=N)NC(C)C)c3)no2)cc1.Cl.Cl [Compound 14, 3-[3-(N-Isopropyl)amidinophenyl]-5-[4-(N-isopropyl)amidinophenyl]-isoxazole dihydrochloride] | 45 fold | 0.0106 µM | 0.008 to 0.03 µM | 0.488 µM | > 350 °C | very nontoxic | > 100000 nM | 187 µM | – |
| Cl.Cl.N=C(N)c1ccc(-c2cc(-c3cc(C(=N)N)ccc3[N+](=O)[O-])no2)cc1 [Compound 19, 3-(5-Amidino-2-nitrophenyl)-5-(4-amidinophenyl)isoxazole dihydrochloride] | – | 0.0021 µM | – | 0.0512 µM | 238 to 240 °C | quite toxic | – | 5.07 µM | – |
| Cl.Cl.N=C(N)c1cccc(-c2cc(-c3cc(C(=N)N)ccc3[N+](=O)[O-])no2)c1 [Compound 38, 3-(5-Amidino-2-nitrophenyl)-5-(3-amidinophenyl)isoxazole dihydrochloride] | – | 0.104 µM | – | 0.085 µM | 220 °C (dec.) | low toxicity | > 100000 nM | 177 µM | – |
| Cl.Cl.N=C(N)c1cccc(-c2cc(-c3ccc(C(=N)N)cc3[N+](=O)[O-])no2)c1 [Compound 27, 3-(4-Amidino-2-nitrophenyl)-5-(3-amidinophenyl)isoxazole dihydrochloride] | – | 0.0304 µM | – | 0.0194 µM | 236 °C (dec.) | low toxicity | > 100000 nM | 206 µM | – |
| COc1cc(C(=N)N)ccc1-c1cc(-c2cccc(C(=N)N)c2)on1.Cl.Cl [Compound 29, 3-(4-Amidino-2-methoxyphenyl)-5-(3-amidinophenyl)isoxazole dihydrochloride] | – | 0.0089 µM | 0.008 to 0.03 µM | 0.0059 µM | 288 °C (dec.) | – | > 100000 nM | 136 µM | 0.0035 to 0.009 µM |
| COc1cc(C(=N)N)ccc1-c1cc(-c2cc(C(=N)N)ccc2OC)on1.Cl.Cl [Compound 31, 3-(4-Amidino-2-methoxyphenyl)-5-(5-amidino-2-methoxyphenyl)isoxazole dihydrochloride] | – | 0.0297 µM | 0.008 to 0.03 µM | 0.0057 µM | 330 °C (dec.) | – | > 100000 nM | 191 µM | 0.0035 to 0.009 µM |
| Cl.Cl.N=C(N)c1cccc(-c2cc(-c3cc(C(=N)N)ccc3Cl)on2)c1 [Compound 36, 5-(5-Amidino-2-chlorophenyl)-3-(3-amidinophenyl)isoxazole dihydrochloride] | – | 0.0163 µM | 0.008 to 0.03 µM | 0.0251 µM | 347 °C (dec.) | low toxicity | > 100000 nM | 109 µM | – |
